From patent US20090104278A1, “FOOD COMPOSITION FOR RECOVERY FROM FATIGUE” (Ajinomoto Co., Inc., priority 2002, published 2009) come the findings set out here.

The experiment deals with CDF1 male mice. Kind of experiment: Spontaneous activity for 60 minutes after 3 hours forced walking exercise (treadmill), infrared sensor. In kind it is in vivo. To be noted: oral, Bonito Extract A 1 g/kg in terms of a free amino acid amount, known components of Bonito Extract A, vs Control group. How it is done:
Three groups (A, B and C groups) of 5-week-old CDF1 male mice, each group consisting of 8 mice (n=8 for each group), were put in a treadmill and subjected to forced walking exercise for 3 hours. Then, the mice of the respective groups were orally administrated, using a gastric sonde, with (1) Bonito Extract A, (2) Bonito Extract B, and (3) Bonito Extract C in an amount of 1 g/kg in terms of free amino acid amount in the bonito extracts. Subsequently, their spontaneous activity for 60 minutes was measured using a spontaneous activity measuring apparatus provided with an infrared sensor, and comparison with the control group (Control group which was administrated with only deionized distilled water in the same manner as the samples) was carried out. The respective samples and the distilled water were administered in amounts of 0.5 mL. The result is represented in FIG. 1.
In the Figure, *, ** and *** represent significant differences from the control group, * being at p<0.05, ** being at p<0.01, and *** being at p<0.001. “Total counts” refers to the number of times of exercising that were measured with the infrared sensor for 60 minutes.
Three groups of 5-week-old CDF1 male mice, each group consisting of 8 mice (n=8 for each group), were put in a treadmill and subjected to forced walking exercise for 3 hours. […]

inosine 1-phosphate [nucleic acid]: the “recovery of spontaneous activity (Test Example 6, FIGS. 8, 9 and 10)” value is “recovery of spontaneous activity was not observed”.

On to `[Cl-].[Na+]` [NaCl], for which the “recovery of spontaneous activity (Test Example 6, FIGS. 8, 9 and 10)” value was “recovery of spontaneous activity was not observed”.
